Laboratory results reported in US20060035291A1, “Method of detecting cellular immunity and application thereof to drugs” (priority 2001, published 2006).

System: HLA-A2 restricted antigen peptide-specific T cells (CTL precursors) in PBMCs
Assay: IFN-γ production (ELISA) by peptide-stimulated HLA-A2 positive PBMCs in response to peptide-sensitized T2 cells
Assay type: cell-based, human
Parameters: production level of IFN-γ: unit not given here
Details: for production level of IFN-γ: average of 4, HIV peptide background subtracted; for IFN-γ production 1st well / IFN-γ production 2nd well / IFN-γ production 3rd well / IFN-γ production 4th well: before vaccination
[1] = HD6, HLA-A2 positive healthy donor
[2] = HD7, HLA-A2 positive healthy donor
[3] = HD8, HLA-A2 positive healthy donor
[4] = HD9, HLA-A2 positive healthy donor
[5] = HD10, HLA-A2 positive healthy donor
[6] = HLA-A2 positive cervical cancer patient, response to HIV-T2 cells subtracted
[7] = HLA-A2 positive prostate cancer patient
[8] = Pt. 11, HLA-A2 positive pancreatic cancer, ELISA sensitivity limit 10 pg/ml
[9] = Pt. 12, HLA-A2 positive pancreatic cancer, ELISA sensitivity limit 10 pg/ml
[10] = Pt. 13, HLA-A2 positive pancreatic cancer, ELISA sensitivity limit 10 pg/ml
[11] = Pt. 14, HLA-A2 positive pancreatic cancer, ELISA sensitivity limit 10 pg/ml
[12] = Pt. 15, HLA-A2 positive pancreatic cancer, ELISA sensitivity limit 10 pg/ml

| Substance | production level of IFN-γ [1] | production level of IFN-γ [2] | production level of IFN-γ [3] | production level of IFN-γ [4] | production level of IFN-γ [5] | IFN-γ production 1st well [6] [pg/well] | IFN-γ production 2nd well [6] [pg/well] | IFN-γ production 3rd well [6] [pg/well] | IFN-γ production 4th well [6] [pg/well] | IFN-γ production 1st well [7] [pg/well] | IFN-γ production 2nd well [7] [pg/well] | IFN-γ production 3rd well [7] [pg/well] | IFN-γ production 4th well [7] [pg/well] | production level of IFN-γ [8] | production level of IFN-γ [9] | production level of IFN-γ [10] | production level of IFN-γ [11] | production level of IFN-γ [12] |
| --- | --- | --- | --- | --- | --- | --- | --- | --- | --- | --- | --- | --- | --- | --- | --- | --- | --- | --- |
| NVLHFFNAPL [HNRPL501] | 0 | 0 | 0 | 0 | 0 | 24 | <0 | <0 | 18 | <0 | 7 | <0 | <0 | 0 | 0 | 14 | 0 | 13 |
| RLAEYQAYI [SART3309] | 0 | 127 | 30 | 25 | 0 | <0 | <0 | 9 | 28 | <0 | <0 | <0 | <0 | 116 | 0 | 19 | 3 | 27 |
| KLVERLGAA [lck246] | 0 | 21 | 29 | 26 | 0 | 19 | <0 | <0 | <0 | <0 | <0 | <0 | <0 | 74 | 16 | 24 | 0 | 0 |
| DLLSHAFFA [ppMAPkkk432] | 0 | 0 | 0 | 0 | 73 | 137 | 12 | <0 | <0 | 43 | 64 | <0 | 5 | 42 | 57 | 58 | 0 | 0 |
| ILGELREKV [WHSC2141] | 0 | 0 | 0 | 12 | 260 | 10 | <0 | <0 | <0 | 6 | 14 | <0 | 9 | 0 | 47 | 0 | 659 | 38 |
| LIADFLSGL [UBE2V85] | 0 | 0 | 0 | 0 | 1226 | 7 | 34 | <0 | <0 | 0 | <0 | 7 | <0 | 0 | 1 | 13 | 7 | 43 |
| ALVEFEDVL [HNRPL140] | 967 | 0 | 0 | 0 | 99 | 24 | <0 | 13 | 40 | 16 | <0 | <0 | <0 | 0 | 63 | 0 | 317 | 39 |
| VLEGMEW [CypB172] |  |  |  |  |  | 22 | <0 | <0 | <0 | <0 | 0 | <0 | <0 |  |  |  |  |  |
| ASLDSDPWV [WHSC2103] | 0 | 0 | 0 | 0 | 96 | 74 | <0 | <0 | <0 | 3 | 0 | <0 | <0 | 186 | 154 | 0 | 38 | 0 |
| GLLFLHTRT [ppMAPkkk294] | 0 | 58 | 0 | 0 | 86 | 133 | <0 | <0 | <0 | <0 | 34 | <0 | <0 | 179 | 170 | 0 | 0 | 0 |
